This is an account of results in publication PMC10407933, “Four of a Kind: A Complete Collection of ADP-Ribosylated Histidine Isosteres Using Cu(I)- and Ru(II)-Catalyzed Click Chemistry” (The Journal of Organic Chemistry, 2023).

Structures are written as SMILES. Where two headings read alike, the source gives them in different places. Starred links: 1 amine or outer side, 2 acyl side, 3 side chain; linkers in the order of their positions; H or OH if unused. Non-standard residues stand in square brackets, D forms with d. Residues, ends and D or L forms follow the SMILES beside them. X2 = Nc1ncnc2c1ncn2[C@@H]1O[C@H](COP(=O)(O)OP(=O)(O)OC[C@H]2O[C@@H](n3nncc3C[C@H](N[*:1])C(=O)[*:2])[C@H](O)[C@@H]2O)[C@@H](O)[C@H]1O; X1 = Nc1ncnc2c1ncn2[C@@H]1O[C@H](COP(=O)(O)OP(=O)(O)OC[C@H]2O[C@H](n3nncc3C[C@H](N[*:1])C(=O)[*:2])[C@H](O)[C@@H]2O)[C@@H](O)[C@H]1O

The target in data set [1] is ARH3 (Homo sapiens, UniProt Q9NX46). The settings on record: 10 μM peptide, 0.5 μM hydrolase, 30 C, AMP-Glo luminescence, normalized to NudT16; for ARH3-mediated hydrolysis of the N-glycosidic linkage: 60 min, 50 mM TrisHCl pH 8, 200 mM NaCl, 10 mM MgCl2, 1 mM DTT, 0.2 μM human NUDT5. On the procedure: (§1) Samples were extracted at different time points (2, 4, 8, 24, 48, and 169 h) and quenched with TFA prior to LC-MS injection. Peptide degradation was quantified by analyzing the UV-trace (260 nm) using Xcalibur software. […] Enzymatic turnover of the various peptides was assessed by monitoring AMP release directly (NudT16) or converting released ADPr via NudT5 to AMP. AMP was measured using the AMP-Glo assay (Promega). Samples are background corrected and normalized to NudT16 activity.
ARH3, sequence (Q9NX46 whole entry): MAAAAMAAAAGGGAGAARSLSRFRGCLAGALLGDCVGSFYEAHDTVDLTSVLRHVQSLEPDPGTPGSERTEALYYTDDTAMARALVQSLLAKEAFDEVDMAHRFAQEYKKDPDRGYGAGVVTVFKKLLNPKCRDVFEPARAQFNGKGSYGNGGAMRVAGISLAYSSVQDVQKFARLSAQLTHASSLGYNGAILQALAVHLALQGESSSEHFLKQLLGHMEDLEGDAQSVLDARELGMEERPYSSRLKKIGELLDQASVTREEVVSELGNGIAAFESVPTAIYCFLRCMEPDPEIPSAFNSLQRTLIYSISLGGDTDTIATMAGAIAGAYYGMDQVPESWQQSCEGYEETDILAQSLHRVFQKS

For data set [2] the following is noted: 0.1 M NaOH; for additional peaks of identical mass (isomerization) after NaOH treatment: LC-MS. The method, then: With all four ADPr-His* conjugates available, we next evaluated their stability under various conditions in a liquid-chromatography mass-spectrometry (LC-MS) based assay. The conditions surveyed (NH2OH, TFA, and NaOH) were selected because of their frequent occurrence in ADP-ribosylome-focused proteomics studies.
as §1
Figure S3. UV-trace (260 nm) of the obtained LC-MS spectra after treating β-configured 1,5-disubstituted triazole 24 with 0.1 M NaOH at various time points.
(1 picture or pasted object on this page, not shown here)
Figure S6. UV-trace (260 nm) of the obtained LC-MS spectra after treating α-configured 1,5-disubstituted triazole 29 with 0.1 M NaOH at various time points.

[3] abbreviates: 0 h, quenched with TFA, LC-MS UV-trace 260 nm.
The mark [4] stands for this setting: 2 h, quenched with TFA, LC-MS UV-trace 260 nm.
The mark [5] stands for this setting: 4 h, quenched with TFA, LC-MS UV-trace 260 nm.
Setting [6] is: 8 h, quenched with TFA, LC-MS UV-trace 260 nm.
Where [7] appears, read: 24 h, quenched with TFA, LC-MS UV-trace 260 nm.
Where [8] appears, read: 48 h, quenched with TFA, LC-MS UV-trace 260 nm.
[9] abbreviates: 169 h, quenched with TFA, LC-MS UV-trace 260 nm.

With `CC(C)C[C@H](NC(=O)CNC(=O)[C@H](C)NC(=O)CNC(=O)[C@H](Cc1cn([C@H]2O[C@H](COP(=O)(O)OP(=O)(O)OC[C@H]3O[C@@H](n4cnc5c(N)ncnc54)[C@H](O)[C@@H]3O)[C@@H](O)[C@H]2O)nn1)NC(=O)[C@H](Cc1ccccc1)NC(=O)[C@@H](N)[C@@H](C)O)C(=O)N[C@H](C(=O)N[C@H](C(=O)N1CCC[C@H]1C(=O)N[C@H](C(=O)N[C@@H](CC(=O)O)C(=O)N[C@@H](CCCCN)C(=O)O)C(C)C)C(C)C)C(C)C` [compound 28], the “ARH3-mediated hydrolysis of the N-glycosidic linkage” value (“ARH3-mediated hydrolysis” for short) in data set [1] was “very weakly”. In addition, in data set [2] (24 h), the “additional peaks of identical mass (isomerization) after NaOH treatment” value is on record as 12%.

Take `CC(C)C[C@H](NC(=O)CNC(=O)[C@H](C)NC(=O)CNC(=O)[C@H](Cc1cn([C@@H]2O[C@H](COP(=O)(O)OP(=O)(O)OC[C@H]3O[C@@H](n4cnc5c(N)ncnc54)[C@H](O)[C@@H]3O)[C@@H](O)[C@H]2O)nn1)NC(=O)[C@H](Cc1ccccc1)NC(=O)[C@@H](N)[C@@H](C)O)C(=O)N[C@H](C(=O)N[C@H](C(=O)N1CCC[C@H]1C(=O)N[C@H](C(=O)N[C@@H](CC(=O)O)C(=O)N[C@@H](CCCCN)C(=O)O)C(C)C)C(C)C)C(C)C` [compound 23]: the “ARH3-mediated hydrolysis” value in data set [1] is recorded as “unaffected”. For the same molecule, the “additional peaks of identical mass (isomerization) after NaOH treatment” value in data set [2] (24 h) amounted to 5%.

In the case of `CC(C)C[C@H](NC(=O)CNC(=O)[C@H](C)NC(=O)CNC(=O)[C@H](Cc1cnnn1[C@H]1O[C@H](COP(=O)(O)OP(=O)(O)OC[C@H]2O[C@@H](n3cnc4c(N)ncnc43)[C@H](O)[C@@H]2O)[C@@H](O)[C@H]1O)NC(=O)[C@H](Cc1ccccc1)NC(=O)[C@@H](N)[C@@H](C)O)C(=O)N[C@H](C(=O)N[C@H](C(=O)N1CCC[C@H]1C(=O)N[C@H](C(=O)N[C@@H](CC(=O)O)C(=O)N[C@@H](CCCCN)C(=O)O)C(C)C)C(C)C)C(C)C` [compound 29] (H-TF[X1]GAGLVVPVDK-OH), the “ARH3-mediated hydrolysis” value in data set [1] was “capable of hydrolyzing”. Also, the “conversion by ARH3” value in data set [1] (within the 1 h reaction, pH 8) was about 50%. For the same molecule, the “Accumulated isomers (%)” value in data set [2] (setting [3]) worked out at 0%; in data set [2] (setting [4]), 26%; in data set [2] (setting [5]) it was 40%; in data set [2] (setting [6]), 51%; in data set [2] (setting [7]), 61%; in data set [2] (setting [8]), 62%. Also, the “Accumulated isomers (%)” value in data set [2] (setting [9]) is given as 62%. For the same molecule, the “Intact peptide (%)” value in data set [2] (setting [3]) was 100%; in data set [2] (setting [4]), 74%; in data set [2] (setting [5]), 60%; in data set [2] (setting [6]), 49%; in data set [2] (setting [7]), 39%; in data set [2] (setting [8]) it was 38%. Also, the “Intact peptide (%)” value in data set [2] (setting [9]) amounted to 38%.

Regarding `CC(C)C[C@H](NC(=O)CNC(=O)[C@H](C)NC(=O)CNC(=O)[C@H](Cc1cnnn1[C@@H]1O[C@H](COP(=O)(O)OP(=O)(O)OC[C@H]2O[C@@H](n3cnc4c(N)ncnc43)[C@H](O)[C@@H]2O)[C@@H](O)[C@H]1O)NC(=O)[C@H](Cc1ccccc1)NC(=O)[C@@H](N)[C@@H](C)O)C(=O)N[C@H](C(=O)N[C@H](C(=O)N1CCC[C@H]1C(=O)N[C@H](C(=O)N[C@@H](CC(=O)O)C(=O)N[C@@H](CCCCN)C(=O)O)C(C)C)C(C)C)C(C)C` [compound 24] (H-TF[X2]GAGLVVPVDK-OH), the “ARH3-mediated hydrolysis” value in data set [1] is listed as “unaffected”. The “Accumulated isomers (%)” value was 0% in data set [2] (setting [3]); 39% in data set [2] (setting [4]); 48% in data set [2] (setting [5]); 71% in data set [2] (setting [8]); 71% in data set [2] (setting [9]). Moreover, the “Intact peptide (%)” value in data set [2] (setting [4]) is given as 61%; in data set [2] (setting [8]) it was 29%; in data set [2] (setting [9]) it was 29%. Further, the “original peptide present after NaOH treatment” value in data set [2] (after 12 h, time course, quenched with TFA, LC-MS UV-trace 260 nm) amounted to 38%.
